# From ChEMBL document CHEMBL1201862, “PubChem BioAssay data set” (2004)
# Activity calls are given as the source filed them.
# Columns and labels:
# [1] = molecular target: Dual specificity protein phosphatase 3 (Homo sapiens, UniProt P51452); assay: VHR phosphatase inhibition, dose response, selectivity assay for STEP inhibitor project, biochemical (AID 602374); format: functional; conditions: read-out: IC50_Mean
# [2] = molecular target: Tyrosine-protein phosphatase non-receptor type 11 (Homo sapiens, UniProt Q06124); assay: SHP2 phosphatase inhibition, dose response, selectivity assay for STEP inhibitor project, biochemical (AID 602367); format: functional; conditions: read-out: IC50_Mean
# Tyrosine-protein phosphatase non-receptor type 11, sequence (Q06124 whole entry): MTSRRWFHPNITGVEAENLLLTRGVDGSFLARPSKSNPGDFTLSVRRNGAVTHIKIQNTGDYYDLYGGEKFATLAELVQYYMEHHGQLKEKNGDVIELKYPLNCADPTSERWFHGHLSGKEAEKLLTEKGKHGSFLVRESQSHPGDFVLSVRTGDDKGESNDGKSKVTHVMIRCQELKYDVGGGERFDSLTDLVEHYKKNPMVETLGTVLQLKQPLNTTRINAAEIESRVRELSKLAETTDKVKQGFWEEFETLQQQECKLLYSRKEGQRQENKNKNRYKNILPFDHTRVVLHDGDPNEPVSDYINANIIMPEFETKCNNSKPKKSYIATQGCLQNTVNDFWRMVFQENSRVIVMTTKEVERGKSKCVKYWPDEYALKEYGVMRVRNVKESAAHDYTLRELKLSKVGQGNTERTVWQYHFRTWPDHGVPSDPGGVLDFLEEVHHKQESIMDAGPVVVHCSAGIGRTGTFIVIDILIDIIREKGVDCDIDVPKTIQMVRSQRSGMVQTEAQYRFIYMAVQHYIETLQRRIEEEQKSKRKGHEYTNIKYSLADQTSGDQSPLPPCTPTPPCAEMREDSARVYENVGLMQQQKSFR
# [3] = molecular target: T1, Tyrosine-protein phosphatase non-receptor type 22 (Homo sapiens, UniProt Q9Y2R2); assay: PTPN22 phosphatase inhibition, dose response, selectivity assay for STEP inhibitor project, biochemical (AID 624241); format: functional
# T1 sequence (Q9Y2R2 whole entry): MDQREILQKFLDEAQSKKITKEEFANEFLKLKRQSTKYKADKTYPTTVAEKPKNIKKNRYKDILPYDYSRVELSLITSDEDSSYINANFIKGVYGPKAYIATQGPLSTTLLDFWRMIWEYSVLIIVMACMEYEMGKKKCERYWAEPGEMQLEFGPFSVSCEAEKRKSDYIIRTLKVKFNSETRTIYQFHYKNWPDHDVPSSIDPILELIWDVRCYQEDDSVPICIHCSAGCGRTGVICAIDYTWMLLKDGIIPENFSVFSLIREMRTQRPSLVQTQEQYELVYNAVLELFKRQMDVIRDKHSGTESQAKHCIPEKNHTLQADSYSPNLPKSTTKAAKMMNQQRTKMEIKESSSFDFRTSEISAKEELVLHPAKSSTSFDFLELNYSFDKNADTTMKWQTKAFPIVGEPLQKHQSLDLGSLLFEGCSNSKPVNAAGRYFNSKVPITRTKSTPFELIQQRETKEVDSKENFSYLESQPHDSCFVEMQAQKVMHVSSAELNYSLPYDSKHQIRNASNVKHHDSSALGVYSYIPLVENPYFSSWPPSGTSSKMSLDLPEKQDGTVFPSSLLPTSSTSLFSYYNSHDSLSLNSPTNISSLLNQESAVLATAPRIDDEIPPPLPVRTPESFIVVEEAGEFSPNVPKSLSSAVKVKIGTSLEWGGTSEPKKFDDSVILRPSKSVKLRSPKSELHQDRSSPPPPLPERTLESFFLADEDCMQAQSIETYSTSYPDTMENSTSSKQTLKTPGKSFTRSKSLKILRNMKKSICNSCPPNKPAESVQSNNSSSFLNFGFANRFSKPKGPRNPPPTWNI
# [4] = molecular target: Tyrosine-protein phosphatase non-receptor type 5 (Homo sapiens, UniProt P54829); assay: STEP phosphatase inhibitors, confirmation, biochemical, fluorescence intensity, uHTS hits (AID 602372); format: functional; conditions: read-out: IC50_Mean
# Tyrosine-protein phosphatase non-receptor type 5, sequence (P54829 whole entry): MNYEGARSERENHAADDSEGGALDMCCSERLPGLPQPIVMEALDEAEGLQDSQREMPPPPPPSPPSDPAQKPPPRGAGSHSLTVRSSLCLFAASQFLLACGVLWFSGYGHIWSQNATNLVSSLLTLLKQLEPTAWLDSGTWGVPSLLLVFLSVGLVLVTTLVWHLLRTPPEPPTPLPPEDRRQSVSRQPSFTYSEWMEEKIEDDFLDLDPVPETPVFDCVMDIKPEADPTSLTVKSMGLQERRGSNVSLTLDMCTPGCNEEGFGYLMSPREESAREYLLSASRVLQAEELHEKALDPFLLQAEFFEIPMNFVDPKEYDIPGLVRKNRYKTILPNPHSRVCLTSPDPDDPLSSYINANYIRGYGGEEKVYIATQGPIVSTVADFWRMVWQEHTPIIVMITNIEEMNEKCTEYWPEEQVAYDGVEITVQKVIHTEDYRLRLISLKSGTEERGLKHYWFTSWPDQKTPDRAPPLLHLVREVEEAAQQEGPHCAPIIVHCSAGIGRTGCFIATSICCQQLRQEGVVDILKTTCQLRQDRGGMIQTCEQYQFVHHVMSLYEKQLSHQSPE
# [5] = control 3'UTR Renilla luciferase suppression, dose response, counter-screen for Shn3 inhibitor project, cell-based, Clone20-Shn3RL, cherry-picked (AID 624133); format: functional
# Paired box protein Pax-8 = Paired box protein Pax-8 (Homo sapiens, UniProt Q06710); assay: inhibitors of PAX8-driven TPO luciferase reporter, dose response, RMG-I cells, cherry-pick (AID 687027); format: functional, cell-based;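 further: luciferase reporter driven by Pax8 target thyroperoxidase promoter measured by SteadyGlo luminescence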
# Paired box protein Pax-8, sequence (Q06710 whole entry): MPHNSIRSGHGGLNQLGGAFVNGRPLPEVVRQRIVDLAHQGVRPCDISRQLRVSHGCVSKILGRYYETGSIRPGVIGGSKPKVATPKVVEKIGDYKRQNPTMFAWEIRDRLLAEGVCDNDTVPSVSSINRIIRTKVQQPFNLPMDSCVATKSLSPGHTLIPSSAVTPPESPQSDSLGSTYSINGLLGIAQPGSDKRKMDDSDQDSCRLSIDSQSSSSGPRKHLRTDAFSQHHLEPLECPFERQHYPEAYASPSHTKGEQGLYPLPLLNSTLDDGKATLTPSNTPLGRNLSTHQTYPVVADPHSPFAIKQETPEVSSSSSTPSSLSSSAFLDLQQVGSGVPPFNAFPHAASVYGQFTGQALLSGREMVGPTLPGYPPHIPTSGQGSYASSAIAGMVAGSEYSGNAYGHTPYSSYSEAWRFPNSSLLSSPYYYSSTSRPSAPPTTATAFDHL
# [6] = Shn3 3'UTR reporter inhibitors, dose response, cell-based, Clone20 osteoblasts, firefly luciferase, cherry-picked (AID 624132); format: functional;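 further: firefly luciferase luminescence from reporter carrying the Shn3 3'UTR in osteoblasts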
# [7] = HepG2 cell cytotoxicity, dose response, cytotoxicity control for Shn3 inhibitor project, CellTiter-Glo, cherry-picked (AID 624134); format: functional, cell-based
# Beta Lactamase = Beta Lactamase (Pseudomonas aeruginosa, UniProt Q932Y6); assay: beta-lactamase reporter inhibitor potency, dose response, artefact control for NOD2-RIPK2 interaction inhibitor project, BLA reporter cells, FRET fluorescence (AID 651552); format: functional, cell-based
# Beta Lactamase, sequence (Q932Y6 whole entry): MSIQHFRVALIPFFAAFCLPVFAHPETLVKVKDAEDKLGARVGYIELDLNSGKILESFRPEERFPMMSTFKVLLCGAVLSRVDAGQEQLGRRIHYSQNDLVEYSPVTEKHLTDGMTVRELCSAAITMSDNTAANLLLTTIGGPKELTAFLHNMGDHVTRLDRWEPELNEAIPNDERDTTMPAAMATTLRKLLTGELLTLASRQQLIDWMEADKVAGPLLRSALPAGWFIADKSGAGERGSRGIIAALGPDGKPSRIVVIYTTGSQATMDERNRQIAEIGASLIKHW
# [8] = non-specific cell cytotoxicity, dose response, cytotoxicity control for PAX8 inhibitor project, plate reader, dry powder samples (AID 743021); format: functional, cell-based
# [9] = Fluorescence-based cell-based high throughput dose response assay for inhibitors of the interaction of nucleotide-binding oligomerization domain containing 2 (NOD2) and the receptor-interacting serine-threonine kinase 2 (RIPK2).; format: functional; conditions: Homo sapiens
# [10] = molecular target: Photoreceptor-specific nuclear receptor (Homo sapiens, UniProt Q9Y5X4); format: functional, cell-based;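 further: CHO-S cells with Gal4-NCOR and VP16-NR2E3 two-hybrid luciferase reporter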
# Photoreceptor-specific nuclear receptor, sequence (Q9Y5X4 whole entry, the tested form may be a part): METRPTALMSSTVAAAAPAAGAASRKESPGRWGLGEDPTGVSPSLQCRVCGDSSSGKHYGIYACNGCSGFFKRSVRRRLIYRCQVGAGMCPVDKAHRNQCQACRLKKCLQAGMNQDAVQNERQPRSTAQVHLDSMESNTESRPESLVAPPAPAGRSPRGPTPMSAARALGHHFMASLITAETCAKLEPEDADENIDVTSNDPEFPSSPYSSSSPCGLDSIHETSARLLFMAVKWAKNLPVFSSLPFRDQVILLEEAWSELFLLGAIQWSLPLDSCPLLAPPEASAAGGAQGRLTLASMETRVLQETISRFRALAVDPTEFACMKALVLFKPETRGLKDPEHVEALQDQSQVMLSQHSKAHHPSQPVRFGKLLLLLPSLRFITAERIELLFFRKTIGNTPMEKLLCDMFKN
# [11] = molecular target: Potassium voltage-gated channel subfamily KQT member 2 (Rattus norvegicus, UniProt O88943); assay: KCNQ2 potassium channel inhibitors, dose response, cell-based, automated electrophysiology, set II, rat KCNQ2 (AID 588637); format: functional
# Potassium voltage-gated channel subfamily KQT member 2, sequence (O88943 whole entry): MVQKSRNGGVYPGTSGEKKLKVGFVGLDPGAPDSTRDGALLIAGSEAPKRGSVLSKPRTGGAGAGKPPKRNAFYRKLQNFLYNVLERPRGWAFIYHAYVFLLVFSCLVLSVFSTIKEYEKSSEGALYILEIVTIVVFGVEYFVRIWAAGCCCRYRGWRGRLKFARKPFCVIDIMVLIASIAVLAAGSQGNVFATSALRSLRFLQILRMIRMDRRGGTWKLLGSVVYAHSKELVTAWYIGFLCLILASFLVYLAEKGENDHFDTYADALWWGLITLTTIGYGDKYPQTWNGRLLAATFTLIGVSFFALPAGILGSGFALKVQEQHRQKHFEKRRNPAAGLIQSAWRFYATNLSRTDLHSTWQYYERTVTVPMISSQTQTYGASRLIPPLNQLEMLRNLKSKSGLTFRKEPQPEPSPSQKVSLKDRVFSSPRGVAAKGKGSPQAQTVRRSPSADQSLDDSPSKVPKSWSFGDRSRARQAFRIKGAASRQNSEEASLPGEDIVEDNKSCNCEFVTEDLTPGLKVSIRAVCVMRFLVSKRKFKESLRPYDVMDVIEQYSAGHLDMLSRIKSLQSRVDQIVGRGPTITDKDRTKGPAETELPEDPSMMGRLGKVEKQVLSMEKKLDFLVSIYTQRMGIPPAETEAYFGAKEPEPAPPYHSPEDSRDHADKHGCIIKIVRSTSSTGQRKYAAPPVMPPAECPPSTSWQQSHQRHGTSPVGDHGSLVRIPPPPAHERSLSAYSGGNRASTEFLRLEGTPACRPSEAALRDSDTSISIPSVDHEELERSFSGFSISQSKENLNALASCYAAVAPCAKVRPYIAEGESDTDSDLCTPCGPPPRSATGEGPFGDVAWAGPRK
# [12] = molecular target: T2, Sentrin-specific protease 8 (Homo sapiens, UniProt Q96LD8); format: functional
# T2 sequence (Q96LD8 whole entry): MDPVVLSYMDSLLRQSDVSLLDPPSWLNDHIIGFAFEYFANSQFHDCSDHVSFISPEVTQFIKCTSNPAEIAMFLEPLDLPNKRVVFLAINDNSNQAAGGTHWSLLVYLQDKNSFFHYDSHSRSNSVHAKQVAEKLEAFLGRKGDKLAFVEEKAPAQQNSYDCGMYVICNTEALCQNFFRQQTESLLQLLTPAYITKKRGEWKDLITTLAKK
# Caspase-3 = molecular target: T3, Caspase-3 (Homo sapiens, UniProt P42574); assay: Dose-response confirmation of uHTS inhibitor hits of Sentrin-Specific Protease 8 in a Caspase-3 Fluorescence assay.; format: functional
# T3 sequence (P42574 whole entry): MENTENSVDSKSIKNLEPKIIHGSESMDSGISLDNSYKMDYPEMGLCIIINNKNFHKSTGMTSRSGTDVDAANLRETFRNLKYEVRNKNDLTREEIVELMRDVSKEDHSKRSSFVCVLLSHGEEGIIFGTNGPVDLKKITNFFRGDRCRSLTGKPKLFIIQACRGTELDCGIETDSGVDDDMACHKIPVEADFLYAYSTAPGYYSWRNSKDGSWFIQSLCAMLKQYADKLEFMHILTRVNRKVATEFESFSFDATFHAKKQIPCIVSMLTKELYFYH
# [13] = molecular target: T2, Sentrin-specific protease 8; format: functional; remark: listed apart in the source
# [14] = StAR promoter reporter inhibition counter-screen, dose response, counter-screen for LRH-1 inverse agonist project, cell-based, luminescence, luciferase reporter (AID 651969); format: functional
# Steroidogenic factor 1 = Steroidogenic factor 1 (Homo sapiens, UniProt Q13285); assay: Counterscreen for inverse agonists of the liver receptor homolog-1 (LRH-1; NR5A2): Luminescence-based cell-based high throughput dose response assay to identify inverse agonists of the Steroidogenic Factor 1 Nuclear Receptor (SF1; NR5A1).; format: functional
# Steroidogenic factor 1, sequence (Q13285 whole entry): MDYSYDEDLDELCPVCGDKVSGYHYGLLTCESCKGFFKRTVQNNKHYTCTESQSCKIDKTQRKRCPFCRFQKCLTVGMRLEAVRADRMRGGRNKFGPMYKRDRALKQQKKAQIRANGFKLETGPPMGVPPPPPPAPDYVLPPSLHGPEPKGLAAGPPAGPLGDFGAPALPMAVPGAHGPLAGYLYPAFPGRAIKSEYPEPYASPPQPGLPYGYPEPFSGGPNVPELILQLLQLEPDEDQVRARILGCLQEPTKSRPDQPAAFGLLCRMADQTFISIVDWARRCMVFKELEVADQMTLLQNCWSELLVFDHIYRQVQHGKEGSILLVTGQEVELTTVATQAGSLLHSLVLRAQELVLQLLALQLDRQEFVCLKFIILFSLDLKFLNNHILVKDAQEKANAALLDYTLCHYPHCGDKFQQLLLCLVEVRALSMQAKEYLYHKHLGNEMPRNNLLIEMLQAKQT
# [15] = molecular target: Nuclear receptor subfamily 5 group A member 2 (Homo sapiens, UniProt O00482); format: functional, cell-based;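 further: HEK293T cells transfected with LRH-1 and a StAR promoter luciferase reporter; potency for inhibitors that lower LRH-1 driven reporter light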
# Nuclear receptor subfamily 5 group A member 2, sequence (O00482 whole entry): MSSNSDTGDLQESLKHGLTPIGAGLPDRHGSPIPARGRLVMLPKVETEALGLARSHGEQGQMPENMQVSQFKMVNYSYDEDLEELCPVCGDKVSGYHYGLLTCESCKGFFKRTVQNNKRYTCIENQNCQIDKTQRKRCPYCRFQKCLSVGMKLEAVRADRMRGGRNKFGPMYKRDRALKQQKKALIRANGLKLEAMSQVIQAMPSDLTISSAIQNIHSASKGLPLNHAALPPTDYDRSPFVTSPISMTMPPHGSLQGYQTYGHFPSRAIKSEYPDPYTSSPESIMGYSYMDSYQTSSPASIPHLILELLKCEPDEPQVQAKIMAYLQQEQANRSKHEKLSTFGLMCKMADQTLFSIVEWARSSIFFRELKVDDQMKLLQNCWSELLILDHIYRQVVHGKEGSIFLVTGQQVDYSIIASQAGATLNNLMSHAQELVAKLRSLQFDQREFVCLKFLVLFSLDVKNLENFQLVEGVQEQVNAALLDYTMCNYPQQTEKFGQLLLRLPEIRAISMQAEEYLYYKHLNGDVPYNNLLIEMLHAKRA
# Dual specificity protein phosphatase 3, sequence (P51452 whole entry): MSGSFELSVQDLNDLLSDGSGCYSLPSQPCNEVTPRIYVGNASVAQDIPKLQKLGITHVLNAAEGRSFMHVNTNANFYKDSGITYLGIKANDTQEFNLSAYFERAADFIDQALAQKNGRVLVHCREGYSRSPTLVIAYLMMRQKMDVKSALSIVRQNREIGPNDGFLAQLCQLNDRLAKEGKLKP
smiles,measurement,setting,value
CN(C)c1ccc(C(=S)N2CCN(Cc3ccccc3)CC2)cc1,IC50,[1],0.937 µM (active)
same,IC50,[2],3.25 µM (active)
same,IC50,[3],45.6 µM (inactive)
same,IC50,[4],23.6 µM (inactive)
C=C1C(=O)C23C(O)C1CCC2C12CCCC(C)(COC(C)=O)C1C(O)C3(O)OC2 (centres undefined),AC50,[5],3.84 µM (active)
same,AC50,Paired box protein Pax-8,1.86 µM (active)
same,AC50,[6],0.771 µM (active)
same,AC50,[7],11.8 µM (active)
same,IC50,Beta Lactamase,22.1 µM (inactive)
same,AC50,[8],28.9 µM (active)
same,IC50,[9],1.19 µM (active)
Cc1noc(C)c1S(=O)(=O)Nc1ccc(C(=O)N2CCN(c3ccc(Cl)cc3)CC2)cc1,IC50,[10],11.7 µM (inactive)
CCN(CC)S(=O)(=O)c1ccc(N2CCOCC2)c(NC(=S)NC(=O)c2ccco2)c1,IC50,[11],0.824 µM (active)
COc1ccc2c(c1)Cc1sc(NC(=O)c3cccnc3)nc1-2,IC50,[12],3.66 µM (active)
same,IC50,Caspase-3,29.2 µM (active)
same,IC50,[13],7.97 µM (active)
COc1ccc(OCCNC(=O)C2(C)CCN2Cc2ccc3ccccc3c2)cc1 (centres undefined),IC50,[14],35.9 µM (inactive)
same,IC50,Steroidogenic factor 1,6.42 µM (active)
same,IC50,[15],9.8 µM (active)
